{
  "source": "patent US7732482B2",
  "about": "“Compound from Antrodia camphorata and the use thereof” (Simpson Biotech Co., Ltd., priority 2004, dated 2010)",
  "key": {"[1]": {"system": "HSC-T6 cells", "experiment": "Measurement of intracellular ROS (DCFH-DA, flow cytometry and confocal microscopy)", "format": "cell-based, mice", "details": "HSC-T6, TGF-β 2 ng/ml; FIGS. 2-4", "method": "For visualization and analysis of intracellular ROS, the oxidation-sensitive probe DCFH-DA was used, as previously described. To analyze the net intracellular generation of ROS by flow cytometry, cells were detached by trypsinization after incubation in the absence or presence of the different factors. The cellular fluorescence intensity was measured after 30 min incubation with […] DCFH-DA, by using the same flow cytometer described above. Propidium iodide (0.005%) was used to detect dead cells. For each analysis, 10,000 events were recorded. For confocal microscopy analysis, after incubation of cells in the absence or presence of the different factors, they were washed twice with PBS and the cellular fluorescence intensity was visualized after 30 min of incubation with […] DCFH-DA by using the same confocal microscopy described above. The analysis results were illustrated in FIGS. 2-4. […]\nThe influences of hepacin on mice-derived once-activated HSC-T6 line were studied. […] The luciferase activity was determined with or without 10, 5, 1 nM of hepacin in the absence or presence of 2 ng/ml of transforming growth factor TGF-β. The effects of hepacin on generation of intracellular reactive oxygen species (ROS) in HSC-T6 were also analyzed."}, "[2]": {"system": "TGF-β", "experiment": "TGF-β mediated inflammation and fibrosis, cell model (HSC-T6) and animal model (mouse liver fibrosis)", "details": "overall conclusion from the tests of Example 2 (FIGS. 5-10)", "method": "The EMSA used the following oligonucleotides: consensus Sp1 (f), 5′-GTTGCGGGGCGGGGCCGAGTG-3′; consensus Sp1 (r), 3′-AACGCCCCGCCCCGGCTCACG-5′. 30 pmol of each of the forward and reverse oligonucleotides placed in a volume of 23 μl of 1× Klenow (DNA polymerase) buffer were heated at 94° C. for 2 min and annealed at room temperature for 30 min. The annealed double-stranded oligonucleotides were end-labeled by a fill-in reaction using DNA polymerase (Klenow)(Promega). One unit of the DNA polymerase (Klenow) and […] of (−32P)dCTP (PerkinElmer Life Sciences) were added into the annealed oligonucleotides and the mixture was incubated at 30° C. for 15 min. […] Samples were analyzed on a 4% polyacrylamide gel (acrylamide/bisacrylamide 29:1 in 0.5×Tris borate-EDTA buffer) at 10 V/cm for 2.5 h. The gel was dried and analyzed by autoradiography. […]\nLiver samples (0.5 g) were lysed (Reporter lysis buffer, Promega, Madison, Wis., USA), the protein were boiled in Laemmli's sample buffer and samples were subjected to 10% SDSPAGE followed by western immunoblotting. […] Immunoreactive bands were detected using the enhanced chemiluminescence (ECL) reagent using SuperSignal West Pico Chemiluminescent Substrate (Pierce, Rockford, Ill., USA). The light emitted by the chemical reaction was detected by exposure to Hyperfilm ECL (Amersham Biosciences, Uppsala, Sweden). […]"}},
  "data": [
    {"smiles": "CC(C)=CCOc1ccc(C2=C(CC(C)C)C(=O)NC2=O)cc1", "note": "[Compound 2, 3-Isobutyl-4-[4-(3-methyl-2-butenyloxy)phenyl]-1H-pyrrole-2,5-dione]", "values": [
      {"measurement": "ROS scavenging", "setting": "[1]", "value": "ROS Scavenger"},
      {"measurement": "TGF-β mediated inflammation and fibrosis", "setting": "[2]", "value": "Down Regulated TGF-β Mediated Inflammation and Fibrosis"}
    ]}
  ]
}
